Assay results from the supplement of paper PMC10307832.

Tests used:
Test in all cases: relative viability (nuclei count vs DMSO), 5 days (fraction); higher = more cells survive
IMD-0354 + AZD7762 = compound: O=C(Nc1cc(C(F)(F)F)cc(C(F)(F)F)c1)c1cc(Cl)ccc1O [IMD-0354] + NC(=O)Nc1cc(-c2cccc(F)c2)sc1C(=O)N[C@H]1CCCNC1 [AZD7762] (partner 0.2 µM)
In short: (§1)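 Lung cancer cell lines in 1536-well plates got either a single drug or a fixed anchor-drug dose together with five library-drug doses (not always all listed) in √10 steps, by pin tool, on the day after seeding. Nuclei were counted after 5 days, and relative viability is the treated-to-vehicle ratio of nuclei counts. Values are medians of duplicate plates.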

CX-5461 + Pictilisib = compound: Cc1cnc(CNC(=O)c2c(=O)c3ccc(N4CCCN(C)CC4)nc3n3c2sc2ccccc23)cn1 [CX-5461] + CS(=O)(=O)N1CCN(Cc2cc3nc(-c4cccc5[nH]ncc45)nc(N4CCOCC4)c3s2)CC1 [Pictilisib] (partner 1 µM)
In short: as §1

CX-5461 + Decitabine = compound: Cc1cnc(CNC(=O)c2c(=O)c3ccc(N4CCCN(C)CC4)nc3n3c2sc2ccccc23)cn1 [CX-5461] + Nc1ncn([C@H]2C[C@H](O)[C@@H](CO)O2)c(=O)n1 [Decitabine] (partner 2 µM)
In short: as §1

IMD-0354 + Trametinib = compound: O=C(Nc1cc(C(F)(F)F)cc(C(F)(F)F)c1)c1cc(Cl)ccc1O [IMD-0354] + CC(=O)Nc1cccc(-n2c(=O)n(C3CC3)c(=O)c3c(Nc4ccc(I)cc4F)n(C)c(=O)c(C)c32)c1 [Trametinib] (partner 0.02 µM)
In short: as §1

Cell Line	relative viability (IMD-0354 + AZD7762; first compound 0.04 µM)	relative viability (IMD-0354 + AZD7762; first compound 0.1265 µM)	relative viability (IMD-0354 + AZD7762; first compound 1.265 µM)	relative viability (IMD-0354 + AZD7762; first compound 4 µM)	relative viability (CX-5461 + Pictilisib; first compound 0.03162 µM)	relative viability (CX-5461 + Pictilisib; first compound 0.1 µM)	relative viability (CX-5461 + Pictilisib; first compound 1 µM)	relative viability (CX-5461 + Decitabine; first compound 0.01 µM)	relative viability (CX-5461 + Decitabine; first compound 0.03162 µM)	relative viability (CX-5461 + Decitabine; first compound 0.1 µM)	relative viability (CX-5461 + Decitabine; first compound 0.3162 µM)	relative viability (CX-5461 + Decitabine; first compound 1 µM)	relative viability (IMD-0354 + Trametinib; first compound 0.04 µM)	relative viability (IMD-0354 + Trametinib; first compound 0.1265 µM)	relative viability (IMD-0354 + Trametinib; first compound 1.265 µM)	relative viability (IMD-0354 + Trametinib; first compound 4 µM)	relative viability (IMD-0354 + AZD7762; first compound 0.4 µM)	relative viability (CX-5461 + Pictilisib; first compound 0.01 µM)	relative viability (CX-5461 + Pictilisib; first compound 0.3162 µM)	relative viability (IMD-0354 + Trametinib; first compound 0.4 µM)
LK-2	0.251	0.39	0.105	0.172	0.623	0.652	0.492	0.329	0.278	0.302	0.162	0.279	0.831	0.669	0.874	0.255				
LOU-NH91	0.827	0.672	0.151	0.266	0.497	0.528	0.486	0.844	0.866	0.79	0.613	0.783	0.824	0.675	0.177	0.239	0.284	0.57	0.452	0.406
LU99A	0.246	0.393	0.185	0.151	0.312	0.271	0.173	0.925	0.958	0.923	0.594	0.79	0.434	0.475	0.505	0.206	0.332	0.296	0.289	0.442
LXF-289	1.07	1.09	0.345	0.133	0.922	0.805	0.435	0.412	0.377	0.404		0.351	0.721	0.62	0.5	0.207	0.866	0.789	0.72	0.643
NCI-H23	0.252	0.253	0.13	0.222	0.501	0.488	0.362	0.371	0.344	0.363	0.299	0.268	0.456	0.344	0.144	0.162	0.229	0.449	0.292	0.28
NCI-H322M	0.566	0.548	0.268	0.479	0.535	0.575	0.464	0.716	0.701	0.637	0.572	0.614	0.567	0.622	0.388	0.426	0.48	0.578		0.483
NCI-H358	0.591	0.433	0.245	0.255	0.323	0.249	0.316	0.206	0.195	0.151	0.149	0.121	0.116	0.128	0.134	0.102	0.384	0.29	0.19	0.14
NCI-H441	1.4	1.31	0.24	0.293	0.515	0.505	0.339	0.234	0.206	0.214	0.275	0.191	0.528	0.543	0.164	0.191	0.664	0.376	0.382	0.359
NCI-H460	0.649	0.756	0.0985	0.0595	0.338	0.366	0.2	0.551	0.429	0.228	0.391	0.0313	0.196	0.173	0.0353	0.0199	0.301	0.462	0.108	0.0878
NCI-H596	0.906	0.959	0.519	0.551	0.406	0.372	0.344	1.14	0.994	1.06	1.05	0.872	0.843	0.649	0.659	0.512	0.877	0.465	0.429	0.639
NCI-H647	0.707	0.531	0.0742	0.159	0.459	0.426	0.28	0.443	0.461	0.325	0.417	0.15	0.432	0.616	0.107	0.0901	0.309	0.429	0.136	0.175
NCI-H650	0.926	1.01	0.566	0.174	1.05	0.889	0.731	0.328	0.272	0.298	0.32	0.313	0.987	1.07	0.681	0.232	0.822	0.858	0.664	1.05
NCI-H727	0.589	0.727	0.44	0.398	0.492	0.277	0.614	0.89	0.917	0.839	0.83	0.956	0.38	0.323	0.351	0.394	0.484	0.355	0.253	0.365
NCI-H838	0.981	0.9	0.714	0.688	0.473	0.5	0.325	0.475	0.479	0.47	0.429	0.332	0.518	0.466	0.204	0.166	0.68	0.457	0.474	0.236
NCI-H1355	0.813	0.914	0.494	0.23	0.433	0.493	0.407	0.356	0.34	0.395	0.371	0.348	0.446	0.398	0.331	0.244	0.622	0.469	0.163	0.402
NCI-H1395	0.394	0.427	0.319	0.384	0.576	0.914	0.395	0.764	0.673	0.805	0.653	0.532	1.07	1.04	0.453	0.388	0.383	0.568	0.447	1.01

Cell Line	relative viability (IMD-0354 + AZD7762; first compound 0.04 µM)	relative viability (IMD-0354 + AZD7762; first compound 0.1265 µM)	relative viability (IMD-0354 + AZD7762; first compound 1.265 µM)	relative viability (IMD-0354 + AZD7762; first compound 4 µM)	relative viability (CX-5461 + Pictilisib; first compound 0.03162 µM)	relative viability (CX-5461 + Pictilisib; first compound 0.1 µM)	relative viability (CX-5461 + Pictilisib; first compound 1 µM)	relative viability (CX-5461 + Decitabine; first compound 0.01 µM)	relative viability (CX-5461 + Decitabine; first compound 0.03162 µM)	relative viability (CX-5461 + Decitabine; first compound 0.1 µM)	relative viability (CX-5461 + Decitabine; first compound 0.3162 µM)	relative viability (CX-5461 + Decitabine; first compound 1 µM)	relative viability (IMD-0354 + Trametinib; first compound 0.04 µM)	relative viability (IMD-0354 + Trametinib; first compound 0.1265 µM)	relative viability (IMD-0354 + Trametinib; first compound 1.265 µM)	relative viability (IMD-0354 + Trametinib; first compound 4 µM)	relative viability (IMD-0354 + AZD7762; first compound 0.4 µM)	relative viability (CX-5461 + Pictilisib; first compound 0.01 µM)	relative viability (CX-5461 + Pictilisib; first compound 0.3162 µM)	relative viability (IMD-0354 + Trametinib; first compound 0.4 µM)
NCI-H1437	1.12	1.09	0.247	0.297	0.471		0.382	0.603	0.556	0.545	0.51	0.435	0.538	0.486	0.194	0.191	0.755	0.381	0.408	0.325
NCI-H1651	0.468	0.504	0.161	0.14	0.414		0.105	0.598	0.554	0.452	0.588	0.158	0.803	0.729	0.877	0.238	0.422		0.489	0.729
NCI-H1666	0.777	0.957	0.623	0.467	0.533		0.349	0.768	0.671	0.737	0.701	0.731	0.738	0.849	0.872	0.523	0.689	0.375	0.337	0.719
NCI-H1734	0.573	0.565	0.198	0.152	0.519	0.503	0.341	0.509	0.489	0.557	0.483	0.483	0.713	0.703	0.366	0.209	0.417	0.516	0.317	0.483
NCI-H1755	0.412	0.546	0.365	0.274	0.484	0.446	0.383	0.782	0.763	0.66	0.687	0.69	0.858	0.796	0.665	0.228	0.344	0.463	0.301	0.694
NCI-H1792	0.896	0.517	0.17	0.0979	0.296	0.277	0.281	0.664	0.67	0.646	0.542	0.534	0.496	0.564	0.292	0.135	0.551	0.294	0.276	0.221
NCI-H1793	0.592	0.542	0.181	0.205	0.311	0.344	0.402	0.504	0.446	0.535	0.379	0.581	0.346	0.442	0.211	0.169	0.337	0.202	0.212	0.283
NCI-H1915	0.666	0.694	0.507	0.149	1.18	1.1	0.997	0.266	0.259	0.284	0.244	0.283	0.321	0.309	0.249	0.12	0.58	0.966	0.326	0.324
NCI-H1944	0.433	0.541	0.321	0.156	0.371	0.332	0.353	0.478	0.443	0.429	0.371	0.44	0.399	0.391	0.39	0.167	0.488	0.335		0.388
NCI-H1975	0.781	0.771	0.724	0.266	0.274	0.274	0.209	0.404	0.36	0.424	0.447	0.276	0.4	0.379	0.159	0.138	0.655	0.293	0.315	0.271
NCI-H1993	0.853	0.645	0.328	0.529	0.83	0.891	0.819	1.37	0.64	0.668	0.29	0.577	0.53	0.353	0.507	0.401	0.711	0.778	0.84	0.557
NCI-H2085	1.18	1.12	0.324	0.359	0.408	0.435	0.374	0.58	0.524	0.569	0.563	0.517	0.559	0.477	0.25	0.27	0.754	0.551	0.514	0.471
NCI-H2087	1.6	1.07	0.235	0.392	1.02	1.07	0.716	0.277	0.306	0.213	0.288	0.188	0.18	0.183	0.097	0.116	0.637	0.887	0.282	0.125
NCI-H2126	1.24	1.05	0.566	0.346	0.521	0.478	0.487	0.573	0.559	0.618	0.64	0.567	0.591	0.558	0.644	0.31	0.697	0.486	0.518	0.491
NCI-H2170	0.946	0.978	0.767	0.151	0.366	0.344	0.379	0.471	0.454	0.493	0.504	0.446	1.03	0.909	0.897	0.481	0.818	0.368	0.232	0.562
NCI-H2347	0.829	0.838	0.281	0.345	0.697	0.49	0.665	0.628	0.638	0.625	0.604	0.589	0.279	0.296	0.27	0.207	0.617	0.769	0.562	0.227
